Results on 18 compounds are retold here after patent publication US8269010B2, “3-amino-pyridine derivatives for the treatment of metabolic disorders” (Piramal Healthcare Limited, priority 2006, dated 2012).

The subject of assay [1] is insulin resistant adipocytes (3T3 L1). In words: In vitro model exhibiting insulin resistance (IR assay): 14C-2-deoxyglucose uptake. It is filed as cell-based. The note with it: glucose uptake; for fold induction at 10 µM: Mus musculus, dexamethasone-induced insulin resistant 3T3 L1 adipocytes, test compound 10 μM/mL, vehicle = 1.0, cut off 1.50 fold, read-out: Fold activity (fold activity over vehicle); for % of Rosiglitazone (comparison with Rosiglitazone): insulin resistant 3T3 L1 adipocytes, test compound 10 μM vs Rosiglitazone 0.1 μM. As for the experimental part:
The assay was designed as in the reference, British Journal of Pharmacology, 130, 351-58, 2000, the disclosure of which is incorporated by reference for the teaching of the assay. The solution of test compound (10 μM/mL) was prepared in DMSO. […] Differentiation into adipocytes was induced by the known methods as described below. (See, also, J. Biol. […] 3T3 L1 fibroblasts were seeded in 24- or 6-well plates at a density of 0.5−2×10^4 cells/well and were allowed to reach maximal confluency. The confluent fibroblasts were exposed to culture medium for 2 days. […] The mature adipocytes were exposed to dexamethasone, 100 nM added in ethanol, in culture medium and incubated for 2 days. […] The test compound was also present during this period. After 3-4 hours, the medium was aspirated and replaced with Kreb's Ringer phosphate (KRP) buffer at pH 7.4 and with human/porcine insulin, 200 nM. The cells were incubated for 30 minutes at 37° C. […] After exactly 5 minutes, the plates were transferred to ice trays and medium was rapidly aspirated. The cell layer was washed twice with ice-cold phosphate buffered saline, (PBS), pH 7.4. […] Non-specific glucose uptake was assayed in wells exposed to cytochalasin B, inhibitor of glucose transport. […] Statistical analysis was performed using unpaired t-test.

The target of assay [2] is T1, Mouse PPARγ (Mus musculus, UniProt P37238).
T1 construct: endogenous in cells; host or cells: 3T3-L1 fibroblasts
T1 sequence (P37238 1-505): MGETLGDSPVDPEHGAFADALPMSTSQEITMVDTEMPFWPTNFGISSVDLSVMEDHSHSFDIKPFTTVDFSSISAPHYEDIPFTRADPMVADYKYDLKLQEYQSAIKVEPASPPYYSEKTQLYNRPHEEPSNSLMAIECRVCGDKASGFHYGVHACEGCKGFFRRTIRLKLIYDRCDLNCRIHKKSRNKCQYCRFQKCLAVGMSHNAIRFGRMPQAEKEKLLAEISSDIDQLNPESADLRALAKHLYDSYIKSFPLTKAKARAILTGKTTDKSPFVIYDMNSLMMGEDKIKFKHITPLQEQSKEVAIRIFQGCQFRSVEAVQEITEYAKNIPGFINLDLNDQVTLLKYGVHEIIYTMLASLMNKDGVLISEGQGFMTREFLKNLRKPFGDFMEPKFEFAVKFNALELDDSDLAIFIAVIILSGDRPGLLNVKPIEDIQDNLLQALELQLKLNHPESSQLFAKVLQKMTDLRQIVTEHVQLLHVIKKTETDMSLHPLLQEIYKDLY
The assay can be described thus: Mouse PPARγ assay (TransAM PPARγ ELISA, 3T3-L1 fibroblasts). It is filed as cell-based. Conditions: test compound 50 μM, 72 hrs. The procedure: The assay was designed as in the reference, Blood, 104(5), 1361-8, 2004, the disclosure of which is incorporated by reference for the teaching of the assay.
3T3-L1 fibroblasts were seeded in 6-well plates at a density of 4×10^4 cells/well and cultured in DMEM containing 10% calf serum. After 4-5 days, when the cells become confluent, each of test compound was added (from a 20 mM stock in DMSO) to the final concentration of 50 μM in DMEM supplemented with 10% FCS. […] The plates were incubated for 72 hrs at 37° C. in a CO2 incubator with fresh medium containing test substances added after first 48 hrs. After 72 hrs, the medium was removed; the cell layer was washed and processed for the PPARγ assay as per the instruction of the manufacturer (Active Motif, North America, California, USA). PPARγ activation was determined using 96-well ELISA assay as per the instruction manual (TransAM PPARγ. Active Motif, Cat 0.40196). Assay Readout was absorbance output from spectrophotometer for the mouse PPARγ assay. Luminescence data output was recorded for the human PPARγ assay.
For orientation: ELISA stands for enzyme-linked immunosorbent assay.

In assay [3] the test system is genetically diabetic db/db BL/6J mice. In words: Screening in db/db BL/6J mice: reduction of plasma glucose levels. It counts as in vivo. Conditions: 150 mpk od, 10 days. As for the experimental part: The protocol was designed as in references. • 1.
The screening of compounds was based on their ability to reduce the plasma glucose levels in genetically diabetic db/db BL/6J mice.
Male db/db mice (obtained from the Animal House of Nicholas Piramal Research Centre, Goregaon, Mumbai, India) were used for this study (body weight in the range of 30-40 g and age is 6-8 weeks) and were kept eight per cage in individually ventilated cages at controlled temperature (22±1° C.) and humidity (45±5%). Food and water were provided ad libitum during their laboratory stay, except for four hours fasting prior to blood sample collection. 12 hours light and dark cycle was followed during the whole study period.
After 4 hours fasting blood samples were collected from mice. Mice showing plasma glucose levels between 300 to 500 mg/dl were divided in groups (8-10 per group) such that the mean plasma glucose levels and variation within the group, for each group, is nearly same. After grouping, mice in respective groups received treatment with 0.5% CMC vehicle, standard compound or test compounds for 10 days.
After 4 hours fasting, mice were anaesthetized using isoflurane (inhalation anesthetic), and blood samples were collected through the retro orbital plexus. Collected blood samples were centrifuged at 7000 rpm for 10 minutes at 4° C.; Separated plasma was used for estimation of plasma glucose using diagnostic kits (Diasys, Germany). Plasma glucose levels of treated groups were normalized with control group using the following formula, which accounted for the changes in control group.
Formula used for normalization was *:{1−[…]}×100.

On to `O=S(=O)(Nc1cnc(Oc2cnc3ccccc3c2)c(Cl)c1)c1ccc(C(F)(F)F)cc1Cl` [Example 33, 2-Chloro-N-(5-chloro-6-(quinolin-3-yloxy)pyridin-3-yl)-4-(trifluoromethyl)benzene-sulfonamide], for which, in assay [1], the fold induction at 10 µM came out at 2.58 ± 0.11 and the “% of Rosiglitazone (comparison with Rosiglitazone)” value is 68.59 ± 4.81%.
In the case of `COc1ccc(OC)c(S(=O)(=O)Nc2cnc(Oc3cc4ccccc4cn3)c(Cl)c2)c1` [Example 19, N-(5-Chloro-6-(isoquinolin-3-yloxy)pyridin-3-yl)-2,5-dimethoxybenzenesulfonamide], in assay [1], the fold induction at 10 µM was determined as 1.67 ± 0.13 and the “% of Rosiglitazone (comparison with Rosiglitazone)” value stood at 50 ± 10.12%.
`O=S(=O)(Nc1cnc(Oc2cc3ccccc3cn2)c(Cl)c1)c1ccc(C(F)(F)F)cc1Cl` [Example 20, 2-Chloro-N-(5-chloro-6-(isoquinolin-3-yloxy)pyridin-3-yl)-4(trifluoromethyl)benzene sulfonamide]: in assay [1], the fold induction at 10 µM was found to be 2.4 ± 0.68 and the “% of Rosiglitazone (comparison with Rosiglitazone)” value is reported as 36.7 ± 0.96%.
For `O=S(=O)(Nc1cnc(Oc2cc3ccccc3cn2)c(Cl)c1)c1ccc(F)cc1Cl` [Example 15, 2-Chloro-N-(5-chloro-6-(isoquinolin-3-yloxy)pyridin-3-yl)-4-fluorobenzenesulfonamide], in assay [1], the fold induction at 10 µM was 1.7 ± 0.02 and the “% of Rosiglitazone (comparison with Rosiglitazone)” value amounted to 45.25 ± 1.04%. The “PPARγ activity (% of rosiglitazone)” value in assay [2] was 0%.
Consider `Cc1ccc(S(=O)(=O)Nc2cnc(Oc3cc4ccccc4cn3)c(Cl)c2)cc1` [Example 16, N-(5-Chloro-6-(isoquinolin-3-yloxy)pyridin-3-yl)-4-methylbenzenesulfonamide], for which, in assay [1], the fold induction at 10 µM turned out to be 1.6 ± 0.13 and the “% of Rosiglitazone (comparison with Rosiglitazone)” value came to 38.47 ± 7.98%. Besides, in assay [2], the “PPARγ activity (% of rosiglitazone)” value was found to be 18.85%.
With `Cc1ccc(S(=O)(=O)Nc2cnc(Oc3cc4ccccc4cn3)c(Cl)c2)cc1Cl` [Example 3, 3-Chloro-N-(5-chloro-6-(isoquinolin-3-yloxy)pyridin-3-yl)-4-methylbenzenesulfonamide], in assay [1], the fold induction at 10 µM came out at 2.3 ± 0.16 and the “% of Rosiglitazone (comparison with Rosiglitazone)” value amounted to 52 ± 6.5%.
Take `O=S(=O)(Nc1cnc(Oc2cnc3ccccc3c2)c(Cl)c1)c1ccc(Cl)cc1Cl` [Example 27, 2,4-Dichloro-N-(5-chloro-6-(quinolin-3-yloxy)pyridin-3-yl)benzenesulfonamide]: in assay [1], the fold induction at 10 µM came out at 2.01 ± 0.23 and the “% of Rosiglitazone (comparison with Rosiglitazone)” value was 57 ± 15.64%.
As to `COc1ccc(S(=O)(=O)Nc2cnc(Oc3cc4ccccc4cn3)c(Cl)c2)cc1` [Example 24, N-(5-Chloro-6-(isoquinolin-3-yloxy)pyridin-3-yl)-4-methoxybenzenesulfonamide], in assay [1], the fold induction at 10 µM amounted to 1.8 ± 0.32 and the “% of Rosiglitazone (comparison with Rosiglitazone)” value is 46.2 ± 23.8%. Besides, in assay [3], the “Normalization with control (plasma glucose)” value is “Inactive”.
For the compound `O=S(=O)(Nc1cnc(Oc2cc3ccccc3cn2)c(Cl)c1)c1ccc(Cl)cc1F` [Example 13, 4-Chloro-N-(5-chloro-6-(isoquinolin-3-yloxy)pyridin-3-yl)-2-fluorobenzenesulfonamide], in assay [1], the fold induction at 10 µM was 1.4 ± 0.07 and the “% of Rosiglitazone (comparison with Rosiglitazone)” value is given as 19.5 ± 3.51%.
On to `O=S(=O)(Nc1cnc(Oc2cnc3ccccc3c2)c(Cl)c1)c1ccc(Cl)c(Cl)c1` [Example 29, 3,4-Dichloro-N-(5-chloro-6-(quinolin-3-yloxy)pyridin-3-yl)benzenesulfonamide], for which, in assay [1], the fold induction at 10 µM worked out at 2.01 ± 0.09 and the “% of Rosiglitazone (comparison with Rosiglitazone)” value came out at 76 ± 6.11%.
In the case of `O=S(=O)(Nc1cnc(Oc2cc3ccccc3cn2)c(Cl)c1)c1ccc(OC(F)(F)F)cc1` [Example 18, N-(5-Chloro-6-(isoquinolin-3-yloxy)pyridin-3-yl)-4-(trifluoromethoxy)benzene-sulfonamide], in assay [1], the fold induction at 10 µM was found to be 1.77 ± 0.1 and the “% of Rosiglitazone (comparison with Rosiglitazone)” value was found to be 65%.
In the case of `O=S(=O)(Nc1cnc(Oc2cnc3ccccc3c2)c(Cl)c1)c1ccc(F)cc1` [Example 35, N-(5-Chloro-6-(quinolin-3-yloxy)pyridin-3-yl)-4-fluorobenzenesulfonamide], in assay [1], the fold induction at 10 µM was 2.44 ± 0.08 and the “% of Rosiglitazone (comparison with Rosiglitazone)” value worked out at 62.36 ± 3.51%.
In the same order, the values of `N#Cc1ccc(S(=O)(=O)Nc2cnc(Oc3cc4ccccc4cn3)c(Cl)c2)cc1` [Example 5, N-(5-Chloro-6-(isoquinolin-3-yloxy)pyridin-3-yl)-4-cyanobenzenesulfonamide] are 2.41 ± 0.12 and 55.1 ± 4.8%.
Turning to `O=S(=O)(Nc1cnc(Oc2ccc3ncccc3c2)c(Cl)c1)c1ccc(F)cc1F` [Example 48, N-(5-Chloro-6-(quinolin-6-yloxy)pyridin-3-yl)-2,4-difluorobenzenesulfonamide], in assay [1], the fold induction at 10 µM turned out to be 1.82 ± 0.13 and the “% of Rosiglitazone (comparison with Rosiglitazone)” value is given as 36.7 ± 7.3%.
In the same order, the values of `COc1ccc(S(=O)(=O)Nc2cnc(Oc3cc4ccccc4cn3)c(Cl)c2)cc1OC` [Example 22, N-(5-Chloro-6-(isoquinolin-3-yloxy)pyridin-3-yl)-3,4-dimethoxybenzenesulfonamide] are 1.76 ± 0.58 and 15.8 ± 1.8%.
For the compound `Cc1ccc(S(=O)(=O)Nc2cnc(Oc3cnc4ccccc4c3)c(Cl)c2)cc1` [Example 28, N-(5-Chloro-6-(quinolin-3-yloxy)pyridin-3-yl)-4-methylbenzenesulfonamide], in assay [1], the fold induction at 10 µM worked out at 2.6 ± 0.17 and the “% of Rosiglitazone (comparison with Rosiglitazone)” value was 71.77 ± 7.48%.
Consider `O=S(=O)(c1ccc(Cl)cc1Cl)N(c1cnc(Oc2cnc3ccccc3c2)c(Cl)c1)S(=O)(=O)c1ccc(Cl)cc1Cl` [Example 45, 2,4-Dichloro-N-[(2,4-dichlorophenyl)sulfonyl]-N-[5-chloro-6-(quinolin-3-yloxy)pyridin-3-yl]-benzenesulfonamide], for which, in assay [1], the fold induction at 10 µM amounted to 2.13 ± 0.04 and the “% of Rosiglitazone (comparison with Rosiglitazone)” value is reported as 59.5 ± 2.26%.
With `O=S(=O)(Nc1cnc(Oc2cc3ccccc3cn2)c(Cl)c1)c1ccc(Cl)c(Cl)c1` [Example 17, 3,4-Dichloro-N-(5-chloro-6-(isoquinolin-3-yloxy)pyridin-3-yl)benzenesulfonamide], in assay [1], the fold induction at 10 µM worked out at 1.26 ± 0.02 and the “% of Rosiglitazone (comparison with Rosiglitazone)” value worked out at 21.20 ± 1.5%. In addition, in assay [2], the “PPARγ activity (% of rosiglitazone)” value is reported as 12.57%.
